Data: PubChem BioAssay (NCI)
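Abbreviation: GI50, concentration required for 50% inhibition of growth. At the TGI there is no net growth.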

Key:
Assay in all cases: NCI anticancer screen, dose series, 384-well format
786-0 renal = tested on: 786-0 renal
A498 renal = tested on: A498 renal
A549 NSCLC = tested on: A549 NSCLC
ACHN renal = tested on: ACHN renal
BT-549 breast = tested on: BT-549 breast
CAKI-1 renal = tested on: CAKI-1 renal
CCRF-CEM leukemia = tested on: CCRF-CEM leukemia
COLO 205 colon = tested on: COLO 205 colon
DU-145 prostate = tested on: DU-145 prostate
HCT-15 colon = tested on: HCT-15 colon
HL-60(TB) leukemia = tested on: HL-60(TB) leukemia
HOP-62 NSCLC = tested on: HOP-62 NSCLC
HOP-92 NSCLC = tested on: HOP-92 NSCLC
HT29 colon = tested on: HT29 colon
IGROV1 ovarian = tested on: IGROV1 ovarian
K-562 leukemia = tested on: K-562 leukemia
KM12 colon = tested on: KM12 colon
LOX IMVI melanoma = tested on: LOX IMVI melanoma
M14 melanoma = tested on: M14 melanoma
MALME-3M melanoma = tested on: MALME-3M melanoma
MCF7 breast = tested on: MCF7 breast
MDA-MB-231 breast = tested on: MDA-MB-231 breast
MDA-MB-435 melanoma = tested on: MDA-MB-435 melanoma
MDA-MB-468 breast = tested on: MDA-MB-468 breast
MOLT-4 leukemia = tested on: MOLT-4 leukemia
NCI-H226 lung = tested on: NCI-H226 lung
NCI-H23 lung = tested on: NCI-H23 lung

CN(C(=O)c1ccc(C(F)(F)F)cc1)c1ccc(Oc2ccc3c(c2)cc(C(=O)N2CCN(Cc4ccc(OC(F)F)cc4)CC2)n3C)nc1
GI50 ([…]-0 renal): > 100 µM | TGI (786-0 renal): > 100 µM | GI50 (A498 renal): < 0.01 µM | TGI (A498 renal): 0.0209 µM | GI50 (A549 NSCLC): < 0.01 µM | TGI (A549 NSCLC): > 100 µM | GI50 (ACHN renal): > 100 µM | TGI (ACHN renal): > 100 µM | GI50 (BT-549 breast): 1.27 µM | TGI (BT-549 breast): > 100 µM | GI50 (CAKI-1 renal): > 100 µM | TGI (CAKI-1 renal): > 100 µM | GI50 (CCRF-CEM leukemia): < 0.01 µM | TGI (CCRF-CEM leukemia): 1.04 µM | GI50 (COLO 205 colon): > 100 µM | TGI (COLO 205 colon): > 100 µM | GI50 (DU-145 prostate): > 100 µM | TGI (DU-145 prostate): > 100 µM | GI50 (HCT-15 colon): 6.41 µM | TGI (HCT-15 colon): > 100 µM | GI50 (HL-60(TB) leukemia): 1.01 µM | TGI (HL-60(TB) leukemia): 2.56 µM | GI50 (HOP-62 NSCLC): < 0.01 µM | TGI (HOP-62 NSCLC): > 100 µM | GI50 (HOP-92 NSCLC): 0.864 µM | TGI (HOP-92 NSCLC): > 100 µM | GI50 (HT29 colon): > 100 µM | TGI (HT29 colon): > 100 µM | GI50 (IGROV1 ovarian): 0.0201 µM | TGI (IGROV1 ovarian): > 100 µM | GI50 (K-562 leukemia): < 0.01 µM | TGI (K-562 leukemia): > 100 µM | GI50 (KM12 colon): > 100 µM | TGI (KM12 colon): > 100 µM | GI50 (LOX IMVI melanoma): < 0.01 µM | TGI (LOX IMVI melanoma): > 100 µM | GI50 (M14 melanoma): 6.53 µM | TGI (M14 melanoma): > 100 µM | GI50 (MALME-3M melanoma): > 100 µM | TGI (MALME-3M melanoma): > 100 µM | GI50 (MCF7 breast): 0.136 µM | TGI (MCF7 breast): > 100 µM | GI50 (MDA-MB-231 breast): < 0.01 µM | TGI (MDA-MB-231 breast): > 100 µM | GI50 (MDA-MB-435 melanoma): > 100 µM | TGI (MDA-MB-435 melanoma): > 100 µM | GI50 (MDA-MB-468 breast): < 0.01 µM | TGI (MDA-MB-468 breast): < 0.01 µM | GI50 (MOLT-4 leukemia): < 0.01 µM | TGI (MOLT-4 leukemia): 1.42 µM | GI50 (NCI-H226 lung): 0.431 µM | TGI (NCI-H226 lung): > 100 µM | GI50 (NCI-H23 lung): < 0.01 µM
